Source: patent publication US20240426776A1, “RAPID DIFFERENTIATION OF ANTIBIOTIC-SUSCEPTIBLE AND -RESISTANT BACTERIA THROUGH MEDIATED EXTRACELLULAR ELECTRON TRANSFER” (priority 2021, published 2024)
In brackets after ≈: the same amount, converted by molar mass. Several values for one entry are separate records, joined by “and”; a condition that tells them apart may be missing. Equal values may be shown once. Read-outs that look alike come from different tables or passages of the source. Marks after values point to notes of the source that are not given here.

Assays:
[1] = test system: Gram-negative 1 AR55 and Gram-negative 2 AR58; test: READAS operator blinded test; type: cell-based; conditions: for ASIn: imipenem increased from 2× to 20× (12 to 120 μg/mL), OD600=0.1; for READAS susceptibility (first symbol of cell): imipenem up to 20× (120 μg/mL)
Experimental: Tests were conducted for which the species or resistance phenotype was not known beyond the fact that one set was a Gram-positive and the other Gram-negative, and the antibiotics to be tested were oxacillin and imipenem, respectively. The isolates were provided as coded streak plates. Because the species were unknown, the breakpoint concentration of oxacillin and imipenem were estimated from the known breakpoints of the four previously tested strains (as shown in Table 1; 6 μg/mL for oxacillin, S. aureus and 6 μg/mL imipenem for Gram-negative strains). Following the decision methodology for determining antibiotic susceptibility and resistance of READAS, the strains were first tested with 2× the resistance breakpoint concentration (12 μg/mL oxacillin or imipenem) and the ASI2 was measured. This was increased up to 24× the resistance breakpoint concentration. If ASI2≥0.4 then the strain was considered susceptible. […] If neither strain achieved an ASI2≥0.4, 24× the resistance breakpoint concentration was tested and the ASI24 was measured.
As another example method of operation, operator blinded tests were conducted using susceptible and resistant strains of Gram-positive and -negative bacteria. Because the species identification was unknown, […] oxacillin was chosen as the estimated resistance breakpoint for the Gram-positive strain and 6 μg/mL imipenem was initially chosen as the resistance breakpoint for the Gram-negative strain. The stains selected for this example method of operation include Gram-positive 1 ATCC 29213, Gram-positive 2 BAA-1026, Gram-negative 1 AR55 and Gram-negative 2 AR58 with cultures of OD600=0.1, for simplicity.
(§1) Both Gram-positive strains were correctly classified using 2×(12 μg/mL oxacillin) in <120 min (97±45 min and 103±33 min). The Gram-negative strains were also correctly classified after increasing concentrations of imipenem from 2× to 20×(12 to 120 μg/mL imipenem). […] These phenotypic results were confirmed with results of standard procedure known to those skilled in the art and are included in Table 4 below, wherein READAS(S) susceptibility was defined by an ASIn≥0.4; (R) resistant was defined by an ASIn<0.4; analysis time shown in minutes. The standard procedure established susceptibility or resistance, MIC in μg/mL, and analysis time shown in hours.

[2] = test system: Gram-negative 1 AR55 and Gram-negative 2 AR58; test: Standard procedure confirming blinded test (susceptibility, MIC, analysis time); type: cell-based; set-up: key to Standard procedure susceptibility or resistance (second symbol of cell): S: The standard procedure established susceptibility or resistance; R: The standard procedure established susceptibility or resistance
Experimental: as §1

[3] = test system: Staphylococcus aureus (strains 29213 and 43300); test: Microdilution antibiotic susceptibility assay (MIC, CLSI guidelines); type: cell-based; conditions: for MIC: Staphylococcus aureus, MH media, oxacillin: 30° C., 18-24 h, 2% NaCl, read-out: estimated minimum inhibitory concentration from this study
Experimental: Testing for S. aureus susceptibility to oxacillin differed with incubation at 30° C. for 18-24 h in MH media supplemented with 2% NaCl.
Values listed in Table 2 below include the estimated minimum inhibitory concentration from this study (μg/mL), the determination of(S) sensitive or (R) resistant microbes according to CLSI criteria, and the CLSI guidelines (μg/mL) for the species being tested. Empty cells were not evaluated.

[4] = test system: Acinetobacter baumannii (strains 35, 78, 83, and 102); conditions: cited from earlier work
[5] = test system: Escherichia coli (strains 61 and 77); conditions: cited from earlier work
[6] = test system: Staphylococcus aureus (strains 29213 and 43300); test: READAS electrochemical current response with PMS mediator (ASIn); type: cell-based; conditions: for ASIn (antibiotic susceptibility index), single replicates: tobramycin 10× breakpoint (160 μg/mL), ASI10, 15 μM PMS, 0.1 OD600
Experimental: Each measurement was replicated at least four times.
(S. aureus experiments) or 37° C. (all others) MH media.
The current responses measured follows a sigmoidal curve structure.
As a second example method of operation, the S. aureus strains selected from Table 2 were assessed. Initially, a 2×CLSI resistance breakpoint concentrations for two antibiotics oxacillin (12 μg/mL) and tobramycin (32 μg/mL) were used for the example method of operation. The ASI2<0.4 and it was concluded that the concentration of the antibiotics was insufficient to classify the strains as antibiotic-susceptible or -resistant. S. aureus was then treated with 4×, 6×, 8×, 10×, and 20× the breakpoint concentration of oxacillin and was compared to the control as depicted in FIG. 8A. […] S. aureus was also treated with 4× and 10× the breakpoint concentration of tobramycin and was compared to the control depicted in FIG. 8B. […] The efficacy of antibiotic was proportional to the concentration when a high cell density (1.1×10^8 CFU/mL) was used.
The ASIn analysis time for classifying the strains as resistant or susceptible for tobramycin treatment was 33-78 min which was 30 min less than needed for detecting oxacillin susceptibility which required 60-96 min.

[7] = test system: Staphylococcus aureus (strains 29213 and 43300); conditions: cited from earlier work

SMILES	ASIn ([1]; Gram-negative 1 (AR55))	READAS susceptibility (first symbol of cell) ([1]; Gram-negative 1 (AR55))	ASIn ([1]; Gram-negative 2 (AR58))	READAS susceptibility (first symbol of cell) ([1]; Gram-negative 2 (AR58))	MIC ([2]; Gram-negative 1 (AR55)) [µg/mL]	Standard procedure susceptibility or resistance (second symbol of cell) ([2]; Gram-negative 1 (AR55))	MIC ([2]; Gram-negative 2 (AR58)) [µg/mL]	Standard procedure susceptibility or resistance (second symbol of cell) ([2]; Gram-negative 2 (AR58))	MIC ([3]; strain 29213) [µg/mL]	MIC ([3]; strain 43300) [µg/mL]	sensitive or resistant according to CLSI criteria ([3]; strain 29213)	sensitive or resistant according to CLSI criteria ([3]; strain 43300)	CLSI guidelines (resistance breakpoint) for the species [4] [µg/mL]	CLSI guidelines (resistance breakpoint) for the species [5] [µg/mL]	current response with increasing antibiotic concentration ([6]; oxacillin 4×, 6×, 8×, 10×, 20× breakpoint (FIG. 8A), tobramycin 4× and 10× (FIG. 8B), […]10^8 CFU/mL)	ASIn (antibiotic susceptibility index), single replicates ([6]; strain 29213 (susceptible))	average ASI10 (±SE) ([6]; strain 43300 (resistant), tobramycin 10× (160 μg/mL))	ASIn (antibiotic susceptibility index), single replicates ([6]; strain 43300 (resistant))	CLSI guidelines (resistance breakpoint) for the species [7] [µg/mL]
C[C@@H](O)[C@H]1C(=O)N2C(C(=O)O)=C(SCCN=CN)C[C@H]12 [Imipenem, imipenem]	0.1 ± 0.23^c	R/R ((R) resistant was defined by an ASIn<0.4)	0.99 ± 0.01^c	S/S (READAS(S) susceptibility was defined by an ASIn≥0.4)	≥ 16	R/R	≤ 0.25	S/S											
NC[C@H]1O[C@H](O[C@H]2[C@H](O)[C@@H](O[C@H]3O[C@H](CO)[C@@H](O)[C@H](N)[C@H]3O)[C@H](N)C[C@@H]2N)[C@H](N)C[C@@H]1O [Tobramycin, tobramycin]									1 (≈ 2.14 µM)	128 (≈ 274 µM)	S	R	16	16	decreased the current magnitude to ASIn≥0.4 and increased the response time	0.52 and 0.6 and 0.16 and 0.34	−0.10±0.14	0.12 and −0.01 and −0.42	16
